Experiments:
Canis familiaris [1] = test: Time taken for increase in coronary blood flow in anesthetized dogs after intravenous administration at 0.1 mg/kg; assay type: functional, Canis lupus familiaris, Blood/Heart
Canis familiaris [2] = test: Increase in coronary blood flow in anesthetized dogs was measured relative to trapidil (1 mg/kg) after intravenous administration of 0.3 mg/kg; assay type: functional, Canis lupus familiaris, Artery
Canis familiaris [3] = test: Increase in coronary blood flow in anesthetized dogs was measured relative to trapidil (1 mg/kg) after intravenous administration of 0.1 mg/kg; assay type: functional, Canis lupus familiaris, Artery
Canis familiaris [4] = test: Maximum percent decrease in mean blood pressure in anesthetized dogs after intravenous administration at 0.1 mg/kg; assay type: functional, Canis lupus familiaris
Rattus norvegicus = test: Hypotensive index (HI) measured as the area under the time-hypotensive response curve for 6-h period at 30 mg/kg, po; assay type: functional
Canis familiaris [5] = test: Percent increase in coronary blood flow in anesthetized dogs after intravenous administration at 1 mg/kg (p<0.05); assay type: functional, Canis lupus familiaris, Artery
Canis familiaris [6] = test: Percent increase in coronary blood flow in anesthetized dogs after intravenous administration at 0.3 mg/kg; assay type: functional, Canis lupus familiaris, Artery
Canis familiaris [7] = test: Time taken for increase in coronary blood flow in anesthetized dogs after intravenous administration at 0.3 mg/kg; assay type: functional, Canis lupus familiaris, Blood/Heart
Canis familiaris [8] = test: Increase in coronary blood flow in anesthetized dogs was measured relative to trapidil (1 mg/kg) after intravenous administration of 1 mg/kg; assay type: functional, Canis lupus familiaris, Artery
Cavia porcellus [9] = organism: Cavia porcellus; test: Integrated vasodilating potency (IVP) (the product of compound-induced maximum percent decrease in the perfusion pressure and the duration of the effect in minutes at 100 ug (ia)); assay type: functional
Canis familiaris [10] = test: Maximum percent decrease in mean blood pressure in anesthetized dogs after intravenous administration at 1 mg/kg; assay type: functional, Canis lupus familiaris
Canis familiaris [11] = test: Time taken for increase in coronary blood flow in anesthetized dogs after intravenous administration at 1 mg/kg; assay type: functional, Canis lupus familiaris, Blood/Heart
Canis familiaris [12] = test: Maximum percent decrease in mean blood pressure in anesthetized dogs after intravenous administration at 0.3 mg/kg; assay type: functional, Canis lupus familiaris
Canis familiaris [13] = test: Percent increase in coronary blood flow in anesthetized dogs after intravenous administration at 0.1 mg/kg; assay type: functional, Canis lupus familiaris, Artery
Cavia porcellus [14] = organism: Cavia porcellus; test: Integrated vasodilating potency is the product of compound-induced maximum percent decrease in the perfusion pressure and the duration of the effect in minutes at 100 ug (ia); assay type: functional
Cavia porcellus [15] = organism: Cavia porcellus; test: Integrated vasodilating potency (the product of compound-induced maximum percent decrease in the perfusion pressure and the duration of the effect in minutes at 100 ug (ia); Coronary vasoconstricting action); assay type: functional

Row | Structure (SMILES) | HI (Rattus norvegicus) | IVP (Cavia porcellus [15]) | further results
1 | Cc1nc2ncnn2c2c1CCN2C(C)(C)C [BUMEPIDIL] | 181 | – | Duration (Canis familiaris [1]): 4.3 min; Relative potency (Canis familiaris [2]): 3.8; Relative potency (Canis familiaris [3]): 0.7; Decrease (Canis familiaris [4]): -3.3%; Max (Canis familiaris [5]): 219.8%; Max (Canis familiaris [6]): 132.3%; Duration (Canis familiaris [7]): 9.3 min; Relative potency (Canis familiaris [8]): 8.4; IVP (Cavia porcellus [9]): 815; Decrease (Canis familiaris [10]): -32.3%; Duration (Canis familiaris [11]): 10.6 min; Decrease (Canis familiaris [12]): -11.7%; Max (Canis familiaris [13]): 34.7%
2 | CCCCCCCN1CCc2c(C)nc3ncnn3c21 | 30 | – | IVP (Cavia porcellus [14]): 184
3 | Cc1nc2nc(-c3ccccc3)nn2c2c1CCN2C(C)C | 0 | Coronary vasoconstricting action | –
4 | CCCCN1CCc2c(C)nc3nc(-c4ccccc4)nn3c21 | 10 | Coronary vasoconstricting action | –
5 | COc1ccc(-c2nc3nc(C)c4c(n3n2)N(C(C)(C)C)CC4)cc1 | 13 | Coronary vasoconstricting action | –
6 | Cc1nc2ncnn2c2c1CCN2CC(C)O (stereo not given) | 5 | Coronary vasoconstricting action | –
7 | Cc1nc2ncnn2c2c1CCCN2Cc1ccccc1Cl | 10 | Coronary vasoconstricting action | –
8 | COc1ccc(-c2nc3nc(C)c4c(n3n2)N(C(C)C)CC4)cc1 | 0 | Coronary vasoconstricting action | –
9 | Cc1nc2nc(-c3ccc(Cl)cc3)nn2c2c1CCN2CCCN1CCCC1 | 0 | Coronary vasoconstricting action | –
